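Abbreviation: GI50, concentration required for 50% inhibition of growth. TGI marks complete inhibition of growth.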
How the values were obtained:
Test in all cases: DTP human tumour cell line panel, 384-well format
[1] = test system: 786-0 renal
[2] = test system: A549 NSCLC
[3] = test system: BT-549 breast
[4] = test system: CCRF-CEM leukemia
[5] = test system: COLO 205 colon
[6] = test system: DU-145 prostate
[7] = test system: EKVX NSCLC
[8] = test system: HCT-15 colon
[9] = test system: HL-60(TB) leukemia
[10] = test system: HOP-92 NSCLC
[11] = test system: HT29 colon
[12] = test system: K-562 leukemia
[13] = test system: LOX IMVI melanoma
[14] = test system: M14 melanoma
[15] = test system: MALME-3M melanoma
[16] = test system: MCF7 breast
[17] = test system: MDA-MB-231 breast
[18] = test system: MDA-MB-468 breast
[19] = test system: MOLT-4 leukemia
[20] = test system: NCI-H226 lung
[21] = test system: NCI-H23 lung
[22] = test system: NCI-H322M lung
[23] = test system: NCI-H522 lung
[24] = test system: NCI/ADR-RES ovarian
[25] = test system: OVCAR-4 ovarian
[26] = test system: OVCAR-8 ovarian
[27] = test system: PC-3 prostate
[28] = test system: RPMI-8226 leukemia
[29] = test system: RXF 393 renal
[30] = test system: SF-295 CNS
[31] = test system: SK-MEL-5 melanoma
[32] = test system: SR leukemia
[33] = test system: T-47D breast
[34] = test system: UACC-257 melanoma
[35] = test system: UO-31 renal

Compound `CC(C)(O)c1ccc(N2CCN(c3nnc(Cc4ccccc4)c4ccccc34)CC2)nc1` has a GI50 [1] of 6.92 µM, a GI50 [2] of 5.79 µM and a GI50 [3] of 6.9 µM. It also gave a GI50 [4] of 3.83 µM, a GI50 [5] of 4.39 µM and a GI50 [6] of 5.86 µM. It also gave a GI50 [7] of 4.39 µM, a GI50 [8] of 7.34 µM and a GI50 [9] of 2.68 µM. For the same compound, the TGI [9] was 5.16 µM, the GI50 [10] was 8.09 µM and the GI50 [11] was 9.38 µM. For the same compound, the GI50 [12] was 4.85 µM, the GI50 [13] was 9.67 µM and the GI50 [14] was 8.59 µM. It also gave a GI50 [15] of 3.24 µM, a GI50 [16] of 7.42 µM and a GI50 [17] of 3.22 µM. For the same compound, the GI50 [18] was 1.62 µM, the TGI [18] was 4.37 µM and the GI50 [19] was 2.07 µM. For the same compound, the TGI [19] was 3.86 µM, the GI50 [20] was 6.6 µM and the GI50 [21] was 4.38 µM. The GI50 [22] was 8.82 µM, the GI50 [23] was 6.23 µM and the GI50 [24] was 3.02 µM. For the same compound, the GI50 [25] was 3.75 µM, the GI50 [26] was 5.64 µM and the GI50 [27] was 9.46 µM. It also gave a GI50 [28] of 2.18 µM, a TGI [28] of 5.27 µM and a GI50 [29] of 6.29 µM. It also gave a GI50 [30] of 7.65 µM, a GI50 [31] of 2.17 µM and a TGI [31] of 4.19 µM. It also gave a GI50 [32] of 2.08 µM, a TGI [32] of 5.25 µM and a GI50 [33] of 1.92 µM. For the same compound, the TGI [33] was 6.25 µM, the GI50 [34] was 5.3 µM and the GI50 [35] was 6.13 µM.

— PubChem BioAssay (NCI)
